The source of these data is publication PMC5017749, “Preclinical Metabolism, Pharmacokinetics and In Vivo Analysis of New Blood-Brain-Barrier Penetrant Fingolimod Analogues: FTY720-C2 and FTY720-Mitoxy” (PLoS ONE, 2016).

Like-named read-outs stand apart in the source and are kept apart here.

Series [1] can be described thus: Metabolite profiling and identification in human hepatocytes. Particulars: for Percent Distribution (1 hr incubation) Human / Percent Distribution (2 hr incubation) Human: relative abundance among metabolites of the parent (1 μM), equal LC/MS sensitivity assumed. It counts as in vitro ADME. Also on record: key to Source (peak identified in human hepatocytes): R = Rat; hr = Human; lowercase letter indicates low abundance; h: lowercase letter indicates low abundance. Here is the method:
(§1) Cryopreserved hepatocytes were grown in culture and incubations were performed to generate samples to measure the formation of FTY720-C2 and FTY720-Mitoxy metabolites. Incubations of 1 mL medium containing 1 million cells and 1 μM of FTY720-C2 and FTY720-Mitoxy were conducted at 37° C in a 5% CO2 incubator for 0, 1 and 2 hr, with gentle shaking. Positive control incubations used a cocktail solution containing 10 μM testosterone and 10 μM diclofenac performed for 0, 1 and 2 hr, under similar conditions to confirm the metabolic activity of the hepatocytes. The reactions were terminated by adding 2 mL acetonitrile containing 0.02% formic acid, and thoroughly mixing with gentle vortexing. Samples were transferred into 6 mL vials and stored in the freezer (-70°C) overnight for protein precipitation. Following overnight precipitations, samples were centrifuged at 3,000 rpm for 10 min to pellet proteins. Supernatants were transferred into clean 6 mL vials and evaporated to dryness using a TurboVap concentrator system. Samples were reconstituted using 600 μL 20% acetonitrile in water, briefly vortexed to resuspend, then aliquoted for LC-MS/MS analysis. Controls incubations also included “No drug control” and “no cell control” samples treated in a similar manner as test article samples.
(§2) Metabolite profiling and identification experiments were conducted by LC-MS/MS, composed of an HPLC system consisting of an Agilent Technologies 1200 Series Model G1322A Degasser, Agilent Technologies 1200 Series Model G1312A Binary Pump, Shimadzu HTc autosampler, and Valco Model E60 Flow Diversion Valve, and coupled to an API 4000 mass spectrometer. Separations were accomplished on a Gemini C18 column (150 × 2.0 mm, 5-μm particles; Phenomenex Inc., Torrance, CA), preceded by a SecurityGuard C18 guard column (4.0 × 2.0 mm; Phenomenex Inc.). A two-component mobile phase, consisted of a linear gradient of water containing 0.5% formic acid (v/v) and methanol:acetonitrile (1:1, v/v) containing 0.5% formic acid (v/v), was pumped at 0.3 mL/min. The first 4 min of flow was diverted away from the mass spectrometer. Analysis of the positive control samples was conducted with an HPLC system consisting of two Shimadzu LC-10ATvp pumps and a LEAP Pal autosampler. Separations were accomplished on a Luna C8(2) column (50 × 2.0 mm, 3-μm particles; Phenomenex Inc., Torrance, CA), preceded by a SecurityGuard C18 column (4.0 × 2.0 mm; Phenomenex Inc.). Separation was accomplished with a gradient of water containing 0.2% formic acid and 0.012% NH4OH (v/v) versus acetonitrile at an initial rate of 0.7 mL/min. An API 4000 QTrap mass spectrometer (AB Sciex, Foster City, CA) was used for analysis of positive control samples. Each mass spectrometer used was equipped with an electrospray ionization source and operated in the positive ionization mode. Metabolite identification experiments were performed by recording full scan mass spectral data (Q1MS) for all samples, and selected samples were analyzed to obtain product ion spectra (MS/MS) of test article metabolites identified in the full scan mass spectral data.

Series [2] is described as follows: Metabolite profiling and identification in rat hepatocytes. Particulars: for Percent Distribution (1 hr incubation) Rat / Percent Distribution (2 hr incubation) Rat: relative abundance among metabolites of the parent (1 μM), equal LC/MS sensitivity assumed. Also on record: key to Source (peak identified in rat hepatocytes): R = Rat; hr = Human; lowercase letter indicates low abundance; h: lowercase letter indicates low abundance. It counts as in vitro ADME, rat (Sprague Dawley). How it is done: as §1, §2

Series [3] is described as follows: Metabolic stability (intrinsic clearance) in dog liver microsomes. The series is classed as in vitro ADME, dog (Beagle). Particulars: dog liver microsomes. Here is the method:
(§3) Liver microsomal incubations contained 0.1mg/mL microsomal proteins and 1 μM of FTY720-C2 or FTY720-Mitoxy in 100 mM potassium phosphate buffer (pH 7.4) ± an NADPH regenerating system (3.5 mM glucose 6-phosphate, 1.3 mM NADP^+, and 0.4 units/mL glucose-6-phosphate dehydrogenase). Following incubations, reactions were terminated for analysis after 0, 10, 20, 30, and 60 min by the addition of acetonitrile containing C17 sphingosine (300 ng/mL) as the internal standard. Samples were vigorously mixed and centrifuged at 3,400 rpm for 10 min to pellet precipitated proteins. An aliquot of each supernatant was used for LC/MS analysis, for determination of the remaining FTY720-C2 and FTY720-Mitoxy. Similar incubations were performed using a cocktail solution containing 0.2 μM midazolam and 1 μM diclofenac to determine the metabolic activity of the microsomes as an additional control.
(§4) Samples resulting from liver microsomal incubations were analyzed by LC-MS/MS. Aliquots of the supernatants were injected onto an X-Bridge C18 column (2.1 × 50 mm, 3.5-μm particles) (Waters, Milford, MA), preceded by a SecurityGuard C18 guard column (4.0 × 2.0 mm; Phenomenex Inc.). Separations were accomplished with a gradient of 0.1% acetic acid in water (v/v) versus 0.1% acetic acid in acetonitrile: methanol (75:25, v/v) at a rate of 0.8 mL/min. The eluents were further applied into an equipped API 4000 QTrap mass spectrometer (AB Sciex, Foster City, CA) with electrospray ionization (ESI) interface by two coupled LC-10 AT pumps. Peak area ratios of FTY720-C2 or FTY720-Mitoxy against the C17 sphingosine internal standard were used to determine the amount of parent remaining compared to that at 0 min. The percent of FTY720-C2 or FTY720-Mitoxy remaining was calculated by dividing the peak area ratio obtained at each time point by that obtained at 0 min. The in vitro intrinsic clearance (CLint) was calculated by linear regression of the log percent of compound remaining versus time plots using Microsoft Excel, two independent experiments (n = 2) were performed for each compound and species. Then, the mean and standard deviation (SD), of two values for each condition, were calculated using Microsoft Excel with the “AVERAGE” and “STDEV” functions, respectively.
(Liver microsomes are a subcellular fraction often used to study metabolism.)

The nature of series [4]: Metabolic stability (intrinsic clearance) in monkey liver microsomes. The series is classed as in vitro ADME, monkey (Cynomolgus). Particulars: monkey liver microsomes. Here is the method:
as §3, §4

For series [5] the following is noted: human, cited from earlier work.
On the set-up of series [6]: method as in PMID 16751263. The conditions noted are these: rat, single IV doses ranging from 0.3 to 4 mg/kg; cited from earlier work.
A short description of series [7]: Metabolic stability (intrinsic clearance) in rat liver microsomes. The series is classed as in vitro ADME, rat (Sprague-Dawley). The conditions noted are these: rat liver microsomes. How it is done: as §3, §4
Series [8] can be described thus: Metabolic stability (intrinsic clearance) in mouse liver microsomes. It counts as in vitro ADME, mouse (CD-1). The conditions noted are these: mouse liver microsomes. How it is done:
as §3, §4

A short description of series [9]: Metabolic stability (intrinsic clearance) in human liver microsomes. The series is classed as in vitro ADME. How it is done: as §3, §4
Where [10] appears, read: FTY720-Mitoxy incubation, Table 5.
Setting [11] is: human hepatocytes, listed as FTY720-Mitoxy C6-COOH.
[12] abbreviates: rat hepatocytes, listed as FTY720-Mitoxy C6-COOH.
Where [13] appears, read: human hepatocytes, listed as FTY720-C2 C8-COOH.
Where [14] appears, read: rat hepatocytes, listed as FTY720-C2 C8-COOH.

With `O=C(O)CCCCCCCc1ccc(CCC(CO)(CO)NC(=O)CC[P+](c2ccccc2)(c2ccccc2)c2ccccc2)cc1` [FTY720-Mitoxy C8-carboxylic acid], the “Source (peak identified in human hepatocytes)” value in series [1] (setting [10]) was “H”. Also, in [1] (human hepatocytes), the “Percent Distribution (1 hr incubation) Human” value is recorded as 20.0% and the “Percent Distribution (2 hr incubation) Human” value is 27.3%. Also, the “Source (peak identified in rat hepatocytes)” value in [2] (setting [10]) was “R”. Moreover, in series [2] (rat hepatocytes), the “Percent Distribution (1 hr incubation) Rat” value was determined as 4.4% and the “Percent Distribution (2 hr incubation) Rat” value is listed as 3.4%.

On to `O=C(O)CCCCCc1ccc(CCC(CO)(CO)NC(=O)CC[P+](c2ccccc2)(c2ccccc2)c2ccccc2)cc1` [FTY720-Mitoxy C6-carboxylic acid], for which the “Source (peak identified in human hepatocytes)” value in series [1] (setting [10]) is reported as “H”. Besides, in series [1] (human hepatocytes), the “Percent Distribution (1 hr incubation) Human” value is on record as 58.6% and the “Percent Distribution (2 hr incubation) Human” value came out at 54.8%. Besides, in series [1] (setting [11]), the “Percent Distribution (1 hr incubation) Human” value worked out at 59% and the “Percent Distribution (2 hr incubation) Human” value is listed as 55%. Besides, the “Source (peak identified in rat hepatocytes)” value in series [2] (setting [10]) is recorded as “R”. Further, in series [2] (rat hepatocytes), the “Percent Distribution (1 hr incubation) Rat” value is given as 83.6% and the “Percent Distribution (2 hr incubation) Rat” value was found to be 79.3%. In addition, in [2] (setting [12]), the “Percent Distribution (1 hr incubation) Rat” value was determined as 84% and the “Percent Distribution (2 hr incubation) Rat” value worked out at 79%.

Turning to `CC(=O)NC(CO)(CO)CCc1ccc(CCCC(=O)O)cc1` [FTY720-C2 C4-carboxylic acid], in [1] (FTY720-C2 incubation, Table 4), the “Source (peak identified in human hepatocytes)” value is on record as “H”. In [1] (human hepatocytes), the “Percent Distribution (1 hr incubation) Human” value is recorded as 23.7% and the “Percent Distribution (2 hr incubation) Human” value came to 25.57%. Also, in [2] (FTY720-C2 incubation, Table 4), the “Source (peak identified in rat hepatocytes)” value is reported as “R”. In addition, in [2] (rat hepatocytes), the “Percent Distribution (1 hr incubation) Rat” value is 9.7% and the “Percent Distribution (2 hr incubation) Rat” value came out at 12.88%.

For `CCCCCCCCc1ccc(CCC(N)(CO)CO)cc1` [FTY720, Fingolimod], the “intrinsic clearance interpreted in words” value in series [3] is “slow and low”; in series [4], “slow and low”; in series [7], “slow and low”; in series [8], “slow and low”; in series [9] it was “slow and low”. Moreover, the phosphorylated metabolites result in [1] (human hepatocytes) and in series [2] (rat hepatocytes) was “identified” each time. Also, the elimination half-life result in series [5] (after oral dosing) is on record as “about 7 days”. In addition, the values for the half-life in series [5] (single oral doses of 1 mg) and in [6] were ~ 7 days and ~ 20 hr, respectively.

`CC(=O)NC(CO)(CO)CCc1ccc(CC(=O)O)cc1` [FTY720-C2 C2-carboxylic acid]: the “Source (peak identified in human hepatocytes)” value in series [1] (FTY720-C2 incubation, Table 4) is reported as “H”. Moreover, in series [1] (human hepatocytes), the “Percent Distribution (1 hr incubation) Human” value worked out at 3.2% and the “Percent Distribution (2 hr incubation) Human” value was found to be 7.21%. The “Source (peak identified in rat hepatocytes)” value in series [2] (FTY720-C2 incubation, Table 4) is “R”. Further, in series [2] (rat hepatocytes), the “Percent Distribution (1 hr incubation) Rat” value is given as 21.4% and the “Percent Distribution (2 hr incubation) Rat” value amounted to 35.72%.

On to `CC(=O)NC(CO)(CO)CCc1ccc(CCCCCCCC(=O)O)cc1` [FTY720-C2 C8-carboxylic acid], for which the “Source (peak identified in human hepatocytes)” value in series [1] (FTY720-C2 incubation, Table 4) was “H”. Besides, in [1] (human hepatocytes), the “Percent Distribution (1 hr incubation) Human” value is reported as 49.0% and the “Percent Distribution (2 hr incubation) Human” value worked out at 52.13%. In [1] (setting [13]), the “Percent Distribution (1 hr incubation) Human” value amounted to 49% and the “Percent Distribution (2 hr incubation) Human” value is 52%. The “Source (peak identified in rat hepatocytes)” value in [2] (FTY720-C2 incubation, Table 4) is “R”. In series [2] (rat hepatocytes), the “Percent Distribution (1 hr incubation) Rat” value is 37.0% and the “Percent Distribution (2 hr incubation) Rat” value came to 39.37%. Further, in series [2] (setting [14]), the “Percent Distribution (1 hr incubation) Rat” value is 37% and the “Percent Distribution (2 hr incubation) Rat” value came to 39%.
